# Values of other authors in patent US20090142809A1, “Method for Cleaving Cervimycin Monoesters” (LEIBNIZ-INSTITUT FÜR NATURSTOFF-FORSCHUNG UND INFE, priority 2005, published 2009).
# Experiments:
# [1] = test system: multiresistant staphylococci; conditions: statement in words in the background section
# [2] = test system: vancomycin-resistant Enterococcus faecalis; conditions: statement in words in the background section
compound,measurement,setting,value
COC1=CC(=O)c2c(cc3c(c2O)C(=O)[C@@]2(O[C@H]4CC[C@H](O[C@H]5CC[C@H](O)[C@@H](C)O5)[C@@H](C)O4)C(O)=C(C(N)=O)C(=O)[C@H](O[C@H]4CC[C@H](O[C@H]5CC[C@H](O[C@H]6CC[C@H](O[C@H]7CC[C@H](O)[C@H](C)O7)[C@H](C)O6)[C@H](C)O5)[C@@H](C)O4)[C@H]2C3)C1=O [cervimycin K],activity against multiresistant staphylococci,[1],extremely strong activity
same,activity against the vancomycin-resistant Enterococcus faecalis,[2],extremely strong activity
